Tested on: T1, tannase (tannin acyl hydrolase, TAH) from Aspergillus niger GH1
T1 construct: native intracellular enzyme from submerged culture with tannic acid
Assay: HPLC of released gallic acid; Lineweaver-Burk
Format: biochemical
Conditions: free, partially purified enzyme; 50 mM citrate pH 5.5, 30 °C; read-out: Free tannase / K M
From the text: HPLC of released gallic acid; Lineweaver-Burk on tannase (tannin acyl hydrolase, TAH) from Aspergillus niger GH1

Km: 0.433 mM
Structure (SMILES): COC(=O)c1cc(O)c(O)c(O)c1 [methyl gallate]
